Like-named read-outs stand apart in the source and are kept apart here.
Experiments:
CYP2C19 and CYP3A4 = conditions: major metabolite of voriconazole, in vitro studies; cited from earlier work
[1] = format: in vivo, human (Chinese patients)

| SMILES | Share of all metabolites (CYP2C19 and CYP3A4) | Frequency of supra-therapeutic levels (> 5µg/mL) ([1]; CYP2C19 intermediate metabolizer patients) [%] | Frequency of supra-therapeutic levels (> 5µg/mL) ([1]; CYP2C19 normal metabolizer patients) [%] | Frequency of supra-therapeutic levels (> 5µg/mL) ([1]; CYP2C19 poor metabolizer patients) [%] | Median trough concentration of voriconazole in sub-group analysis ([1]; PM/PPIs users group, excluding cases administered omeprazole or esomeprazole) | concentration at 12 h ([1]; human, plasma, 200 mg, Voriconazole trough concentration, median (IQR), all patients, 250 samples from 114 patients, voriconazole 200mg 12hrly, steady state) [ng/mL] |
| --- | --- | --- | --- | --- | --- | --- |
| C[C@@H](c1nc[n+]([O-])cc1F)[C@](O)(Cn1cncn1)c1ccc(F)cc1F [voriconazole N-oxide] | about 74% |  |  |  |  |  |
| C[C@@H](c1ncncc1F)[C@](O)(Cn1cncn1)c1ccc(F)cc1F [voriconazole] |  | 13.5 | 15.4 | 47.8 | below supra-therapeutic levels | 2100 |

From publication PMC8572102 (Pharmacogenomics and Personalized Medicine, 2021)
